Measured values taken from US8444972B2, “Antitumor antibodies, proteins, and uses thereof” (University of Massachusetts, priority 1999, dated 2013).

Test system: E710.2.3
Assay: Homotypic aggregation assay

Paraformaldehyde
HOMOTYPIC ADHESION induced by DMF10.62.3 in presence of chemical: inhibited
